The text below walks through data of patent publication US11547681B2, “N-acylethanolamide derivatives and uses thereof” (ELIEM THERAPEUTICS, INC., priority 2016, dated 2023).

The structures appear in SMILES notation. Entries after “also recorded” stand apart in the source; their conditions may differ.

Data set [1] in a line: Simulated gastric fluid (SGF) stability, with and without pepsin. In kind it is in vitro ADME. Conditions: for Concentration of analyte I-9: dosed I-9 2 μM.
Data set [2] in a line: PEA levels in New Zealand White rabbit plasma samples after oral administration. Type of data set: in vivo. The following applies: individual rabbits, predose.
Data set [3] in a line: Microsome/S9 fraction control (reaction mixture without microsomal proteins). Type of data set: in vitro ADME. Conditions: for Concentration of analyte I-9: dosed I-9 2 μM. As to the method: As a control for the liver microsome and intestinal S9 fraction studies, additional experiments were run in reaction mixture, with the exclusion of microsomal proteins. The reaction mixture was prepared as described below. […] Individual tubes were dosed for each time point (0, 10, 20, 30, and 60 minutes). At the appropriate time, 500 μL of ice-cold acetonitrile containing 0.1% formic acid and internal standard was added to a single tube. The starting time of each tube was staggered so that all timepoints finished simultaneously. […] Calibration standards were prepared in matched matrix. […] Analytical conditions are outlined in Appendix 4-1.

Data set [4] is described as follows: Simulated gastric fluid (SGF) stability, with and without pepsin. In kind it is in vitro ADME. Conditions: pH 1.2, 2 μM. The protocol: Studies were carried out in simulated gastric fluid (SGF). SGF was prepared by dissolving 2.0 g of NaCl and 3.2 g of purified pepsin (derived from porcine stomach mucosa) in 7 mL of 10 N HCl and sufficient water to make 1000 mL. The pH was adjusted to pH 1.2. Control experiments were also run without the addition of pepsin to the matrix. The test article was added into the SGF at 37° C. at a final concentration of 2 μM, and incubated in a shaking water bath at 37° C. Individual tubes were dosed for each time point (0, 15, 30, 60, and 120 minutes). At the appropriate time, 500 μL of ice-cold acetonitrile containing 0.1% formic acid and internal standard was added to a single tube. The starting time of each tube was staggered so that all timepoints finished simultaneously. The samples were then mixed and centrifuged. Calibration standards were prepared in matched matrix. […] Analytical conditions are outlined in Appendix 4-1.

The nature of data set [5]: PEA levels in New Zealand White rabbit plasma samples after oral administration. Conditions: individual rabbits; Group 3, 32 mg/kg/day; total PEA, ~5 h after morning dosing; listed as PEA-prodrug. In kind it is in vivo. From the text: The present Example describes PEA levels observed in rabbit plasma samples after oral administration of compound(s) provided herein. Blood samples were taken approximately five hours after the morning dosing.
Plasma samples from the current study were not treated to prolong the post-collection stability of the prodrug. Instead, all samples were allowed to stand, thawed and untreated, at room temperature for four hours prior to extraction and analysis. This strategy allowed for any remaining prodrug in the sample to convert to PEA. All reported concentrations are total PEA in the sample.
Seventy-nine New Zealand White rabbit plasma samples were analyzed with a previously developed LC-MS/MS method for the detection of palmitoylethanolamide (PEA). A total of 79 plasma samples were received for analysis. All samples were received frozen in good condition. Samples were stored at −80° C. until analysis.
An LC-MS/MS method for the determination of PEA in plasma was used to quantify samples in this study. See, e.g., Example 3. Study samples were extracted using the methods described in Examples 3-5.

Data set [6] concerns Sprague Dawley rats, carrageenan-induced thermal hyperalgesia. Nature of the data set: Carrageenan-induced inflammatory model, thermal hyperalgesia testing. Type of data set: in vivo, Sprague Dawley rat. As to the method: Sixty male Sprague Dawley rats were used in this study. Baseline thermal hyperalgesia thresholds were determined on day -1; animals were divided into 6 groups based on baseline thermal hyperalgesia thresholds. On day 0, animals received an oral dose of vehicle or I-16. Approximately 30 minutes after dosing the animals received an intra-plantar injection of 2% carrageenan solution. The animals were assessed for thermal hyperalgesia approximately 4 and approximately 24 hours after carrageenan injection.
Thermal hyperalgesia was assessed at baseline (prior to dosing with either vehicle or I-16), 4 hours, and 24 hours post-carrageenan injection.
Mean±SEM ipsilateral paw withdrawal latencies following carrageenan injection in vehicle and I-16 treated animals during the pharmacological assessment period (day 0).

By half-life is commonly meant the time in which the quantity being followed falls by half. `CCCCCCCCCCCCCCCC(=O)NCCOC(=O)CCC(=O)OCC(O)CO` (stereo not drawn) [Compound I-9]: the “% Remaining of Initial (n = 1)” value in data set [1] (SGF w/o pepsin, pH 1.2, 2 μM, 0 min) was 100%; in data set [1] (SGF w/o pepsin, pH 1.2, 2 μM, 15 min), 93%; in data set [1] (SGF w/o pepsin, pH 1.2, 2 μM, 60 min), 72%; in data set [1] (SGF w/pepsin, pH 1.2, 2 μM, 30 min), 80%; in data set [1] (SGF w/pepsin, pH 1.2, 2 μM, 120 min) it was 86%; in data set [3] (no microsomal proteins, pH 7.4, 2 μM, 0 min), 100%. Also, the “% Remaining of Initial (n = 1)” value in data set [3] (no microsomal proteins, pH 7.4, 2 μM, 10 min) is on record as 66%; in data set [3] (no microsomal proteins, pH 7.4, 2 μM, 20 min) it was 77%; in data set [3] (no microsomal proteins, pH 7.4, 2 μM, 30 min) it was 67%; in data set [3] (no microsomal proteins, pH 7.4, 2 μM, 60 min) it was 62%; in data set [4] (SGF w/o pepsin, 30 min) it was 84%; in data set [4] (SGF w/o pepsin, 120 min), 71%. Also, the “% Remaining of Initial (n = 1)” value in data set [4] (SGF w/pepsin, 0 min) is listed as 100%; in data set [4] (SGF w/pepsin, 15 min), 95%; in data set [4] (SGF w/pepsin, 60 min), 92%. The “Concentration of analyte I-9” value in data set [1] (Matrix 'Human', 0 min) is 1520 nM; in data set [1] (Matrix 'Human', head 10 min), 1450 nM; in data set [1] (Matrix 'Human', head 20 min), 1210 nM; in data set [1] (Matrix 'Human', head 30 min) it was 1400 nM; in data set [1] (Matrix 'Human', head 60 min), 1310 nM; in data set [1] (Matrix 'Rat', 0 min), 2070 nM. Also, the “Concentration of analyte I-9” value in data set [1] (Matrix 'Rat', head 10 min) was 1930 nM; in data set [1] (Matrix 'Rat', head 20 min), 1740 nM; in data set [1] (Matrix 'Rat', head 30 min) it was 1490 nM; in data set [1] (Matrix 'Rat', head 60 min) it was 1480 nM; in data set [3] (0 min), 2240 nM; in data set [3] (10 min), 1470 nM. For the same compound, the “Concentration of analyte I-9” value in data set [3] (20 min) is 1720 nM; in data set [3] (30 min) it was 1500 nM; in data set [3] (60 min), 1380 nM. In addition, the half-life at 2 μM in data set [1] (pig, simulated gastric fluid with pepsin, SGF w/pepsin, pH 1.2, 2 μM) is more than 2 h; in data set [3] (microsome/S9 reaction mixture without microsomal proteins, no microsomal proteins, pH 7.4, 2 μM), more than 1 h; in data set [4] (simulated gastric fluid without pepsin, SGF w/o pepsin), more than 2 h. The “PEA concentration in plasma, Day −3” value in data set [2] (Group 3, 32 mg/kg/day) is recorded as “BLOQ (below the limit of quantitation (2.5 ng/mL))”; in data set [2] (Group 4, 160 mg/kg/day), “BLOQ (below the limit of quantitation (2.5 ng/mL))”. The “PEA concentration in plasma, Day −5” value in data set [2] (Group 3, 32 mg/kg/day) was “BLOQ (below the limit of quantitation (2.5 ng/mL))”; in data set [2] (Group 4, 160 mg/kg/day) it was “BLOQ (below the limit of quantitation (2.5 ng/mL))”. Besides, the “PEA concentration in plasma, Day 7” value in data set [5] is recorded as “BLOQ (below the limit of quantitation (2.5 ng/mL))”.
Consider `CCCCCCCCCCCCCCCC(=O)NCCOC(=O)CCC(=O)OC(COC(=O)CCC)COC(=O)CCC` [Compound I-16], for which the “effect on thermal hyperalgesia induced by carrageenan” value in data set [6] (I-16 10.25 mg/kg PO (5 mg/kg equivalents of PEA), any time point (4 and 24 hours)) is on record as “did not significantly reduce; also recorded: no significant effect”; in data set [6] (I-16 20.50 mg/kg PO, 4-hour time point, 20.5 mg/kg), “significantly reduced thermal hyperalgesia; also recorded: significantly reducing thermal hyperalgesia”; in data set [6] (I-16 20.50 mg/kg PO, 24-hour time point), “did not significantly reduce thermal hyperalgesia”. Further, in data set [6] (I-16 10.25 and 20.50 mg/kg PO), the “overall effect on thermal hyperalgesia” value is “dose- and time-dependent reduction of thermal hyperalgesia”.
